Experimental data reported in ChEMBL document CHEMBL4732228, “The total synthesis of berberine and selected analogues, and their evaluation as amyloid beta aggregation inhibitors” (Eur J Med Chem, 2021).
≈ marks a conversion by molar mass, not a printed value. Calls of active or inactive are those of the source. The rule behind the calls is not given here.

Experiments:
[1] = Cytotoxicity against rat PC12 cells assessed as reduction in cell viability incubated for 24 hrs by WST-8 assay; assay type: cell-based, PC-12
[2] = Water solubility of the compound at 1 mg incubated for 12 hrs under shaking condition by UV-HPLC analysis; assay type: physicochemical
[3] = biological target: Amyloid-beta precursor protein (Homo sapiens) (UniProt P05067); experiment: Inhibition of amyloid beta (1 to 42 ) (unknown origin) aggregation at 10 uM after 20 hrs by thioflavin-T fluorescence method relative to control
[4] = biological target: Amyloid-beta precursor protein (Homo sapiens) (UniProt P05067); experiment: Inhibition of amyloid beta (1 to 42 ) (unknown origin) aggregation assessed as decrease in size of amyloid beta fibrils after 20 hrs by TEM analysis (reference value: 1 micrometer)
[5] = biological target: Amyloid-beta precursor protein (Homo sapiens) (UniProt P05067); experiment: Inhibition of amyloid beta (1 to 42 ) (unknown origin) aggregation assessed as decrease in diameter of aggregate after 20 hrs by dynamic light scattering analysis (reference value: 4.6 micrometer)
[6] = biological target: Amyloid-beta precursor protein (Homo sapiens) (UniProt P05067); experiment: Inhibition of amyloid beta (1 to 42 ) (unknown origin) aggregation assessed as appearance of nano-rod like amyloid beta fragments after 20 hrs by CD spectroscopic method
[7] = Ratio of compound solubility to curcumin solubility in water after 12 hrs by UV-HPLC analysis; assay type: physicochemical; conditions: buffer

Amyloid-beta precursor protein (Homo sapiens), sequence (P05067 whole entry, the tested form may be a part): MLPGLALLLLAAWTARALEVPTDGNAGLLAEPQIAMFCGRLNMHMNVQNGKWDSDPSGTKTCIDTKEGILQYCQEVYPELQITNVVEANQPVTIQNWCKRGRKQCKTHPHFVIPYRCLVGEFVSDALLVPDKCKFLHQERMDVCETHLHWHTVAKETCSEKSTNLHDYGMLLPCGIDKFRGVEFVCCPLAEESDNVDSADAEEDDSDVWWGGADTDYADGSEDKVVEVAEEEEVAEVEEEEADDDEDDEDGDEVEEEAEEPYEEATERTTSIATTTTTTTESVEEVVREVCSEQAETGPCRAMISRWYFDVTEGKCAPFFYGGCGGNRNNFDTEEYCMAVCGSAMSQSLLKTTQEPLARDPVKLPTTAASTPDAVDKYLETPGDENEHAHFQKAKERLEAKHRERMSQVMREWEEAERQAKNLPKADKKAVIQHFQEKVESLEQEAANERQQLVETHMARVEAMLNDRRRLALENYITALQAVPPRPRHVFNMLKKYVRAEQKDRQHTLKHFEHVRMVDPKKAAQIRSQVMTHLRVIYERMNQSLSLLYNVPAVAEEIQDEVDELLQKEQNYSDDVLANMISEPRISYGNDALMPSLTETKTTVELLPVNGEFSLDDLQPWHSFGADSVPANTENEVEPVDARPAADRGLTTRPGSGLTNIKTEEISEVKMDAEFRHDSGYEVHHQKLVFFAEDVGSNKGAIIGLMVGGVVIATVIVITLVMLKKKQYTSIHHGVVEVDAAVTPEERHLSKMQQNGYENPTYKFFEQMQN

SMILES | solubility thermodynamic at 12 h [2] [µM] | inhibition [3] [%] | Ratio [7] | CC50 at 24 h [1] [µM] | Activity [4] [nm] | Activity [5] [nm] | inhibition [6]
COc1ccc2c(c1OC)CN1CCc3cc4c(cc3C1C2)OCO4 (configuration not stated) [TETRAHYDROBERBERINE] | 7 (≈ 2.38 µg/mL) |  |  | > 150 |  |  | 
Oc1cc2c(cc1O)C1Cc3ccc(O)c(O)c3CN1CC2 (configuration not stated) | > 3340 | 78 |  | 114 | 50 | 1.3 | Active
COc1ccc2cc3n(c(=O)c2c1OC)CCc1cc2c(cc1-3)OCO2 [OXYBERBERINE] |  |  |  | 137 |  |  | 
COc1ccc2cc3[n+](cc2c1OC)CCc1cc2c(cc1-3)OCO2.[Cl-] [BERBERINE CHLORIDE] | 1780 | 32 | 9000 | > 150 |  |  | 
COc1ccc2ccn(CCc3cc4c(cc3Br)OCO4)c(=O)c2c1OC | 15 (≈ 6.48 µg/mL) |  |  | 132 |  |  | 
COc1cc(/C=C/C(=O)CC(=O)/C=C/c2ccc(O)c(OC)c2)ccc1O [CURCUMIN] |  |  |  | 44 |  |  | 

More lines, main results first:

solubility thermodynamic at 12 h [2] [µM] | inhibition [3] [%] | Ratio [7] | SMILES | CC50 at 24 h [1] [µM] | Activity [4] [nm] | Activity [5] [nm] | inhibition [6]
5.2 (≈ 1.07 µg/mL) |  |  | COc1ccc2cc[nH]c(=O)c2c1OC | 129 |  |  | 
1500 | 39 |  | COc1c(O)ccc2cc3[n+](cc12)CCc1cc(O)c(O)cc1-3.[Cl-] | 39 |  |  | 
2340 (≈ 735 µg/mL) | 100 |  | O=C1C=C(c2ccc(O)c(O)c2)OC(c2cc(O)ccc2O)C1 (configuration not stated) | 114 |  |  | 
2370 (≈ 743 µg/mL) | 61 |  | COc1c(O)ccc2c1CN1CCc3cc(O)c(O)cc3C1C2 (configuration not stated) | 91 |  |  | 
2450 | 72 |  | Oc1cc2c(cc1O)-c1cc3ccc(O)c(O)c3c[n+]1CC2.[Cl-] | 9.8 | 50 |  | Active
2750 | 27 |  | COc1ccc2cc3[n+](cc2c1OC)CCc1cc(O)c(O)cc1-3.[Cl-] | > 150 |  |  | 
26 (≈ 7.73 µg/mL) |  |  | CCOC(CNC(=O)c1cccc(OC)c1OC)OCC | > 150 |  |  | 
